The values below come from patent US10273208B2, “Screening methods for the binding affinity of chemical entities to biological molecules and NEDD4-1 inhibitors identified by the screening methods” (Northwestern University, priority 2014, dated 2019).

Experiment [1] has as its target T1, NEDD4-1 HECT:ubiquitin-fluorescein interaction (Homo sapiens, UniProt P46934).
T1 construct: to elute NEDD4-1 HECT domain (50 mM HEPES, 150 mM NaCl, 0.1 mM EDTA 1 mM DTT); GST (N, cleaved yes); made in house; host or cells: E. coli BL21
T1 sequence (P46934 with tags, fused parts or gaps): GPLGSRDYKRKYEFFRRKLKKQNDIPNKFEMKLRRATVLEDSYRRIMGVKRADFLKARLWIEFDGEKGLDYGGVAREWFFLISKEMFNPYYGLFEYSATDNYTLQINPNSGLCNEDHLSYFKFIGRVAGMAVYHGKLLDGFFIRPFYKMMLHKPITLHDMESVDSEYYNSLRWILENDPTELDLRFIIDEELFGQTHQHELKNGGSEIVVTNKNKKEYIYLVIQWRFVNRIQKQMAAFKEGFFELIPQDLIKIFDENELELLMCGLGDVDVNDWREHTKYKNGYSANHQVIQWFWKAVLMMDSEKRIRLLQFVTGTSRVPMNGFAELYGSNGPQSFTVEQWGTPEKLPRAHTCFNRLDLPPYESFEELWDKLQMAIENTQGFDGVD
The experiment can be described thus: Fluorescence polarization assay of NEDD4-1:Ub binding. The settings on record: NEDD4-1 HECT 7.98 μM, ubiquitin-fluorescein 50 nM, 1 h. The protocol:
NEDD4-1 HECT (7.98 μM) and ubiquitin-fluorescein (50 nM, Lifesensors) in 50 mM HEPES pH 7.5 150 mM NaCl 0.1 mM EDTA were treated with DMSO or varying concentrations of inhibitor in 1% DMSO in black 96 well plates. Changes in fluorescence polarization were monitored over 1 h with a Biotek Synergy 4 plate reader. Slopes of ln(polarization) vs. time were plotted with GraphPad Prism and used to determine the pseudo-first order rate contstant kobs for a given concentration of inhibitor. The values of kinact/KI for each inhibitor were then determined by fitting the kobs vs. [inhibitor] plot to the equation kobs=kinact*[inhibitor]/([inhibitor]+KI). All reactions were performed in triplicate and plotted as mean±s.e.m.

In experiment [2] the target is T2, NEDD4-1 (~120 kDa band) in TC71 Ewing's sarcoma cells (Homo sapiens, UniProt P46934).
T2 sequence (P46934 1-900 isoform P46934-4): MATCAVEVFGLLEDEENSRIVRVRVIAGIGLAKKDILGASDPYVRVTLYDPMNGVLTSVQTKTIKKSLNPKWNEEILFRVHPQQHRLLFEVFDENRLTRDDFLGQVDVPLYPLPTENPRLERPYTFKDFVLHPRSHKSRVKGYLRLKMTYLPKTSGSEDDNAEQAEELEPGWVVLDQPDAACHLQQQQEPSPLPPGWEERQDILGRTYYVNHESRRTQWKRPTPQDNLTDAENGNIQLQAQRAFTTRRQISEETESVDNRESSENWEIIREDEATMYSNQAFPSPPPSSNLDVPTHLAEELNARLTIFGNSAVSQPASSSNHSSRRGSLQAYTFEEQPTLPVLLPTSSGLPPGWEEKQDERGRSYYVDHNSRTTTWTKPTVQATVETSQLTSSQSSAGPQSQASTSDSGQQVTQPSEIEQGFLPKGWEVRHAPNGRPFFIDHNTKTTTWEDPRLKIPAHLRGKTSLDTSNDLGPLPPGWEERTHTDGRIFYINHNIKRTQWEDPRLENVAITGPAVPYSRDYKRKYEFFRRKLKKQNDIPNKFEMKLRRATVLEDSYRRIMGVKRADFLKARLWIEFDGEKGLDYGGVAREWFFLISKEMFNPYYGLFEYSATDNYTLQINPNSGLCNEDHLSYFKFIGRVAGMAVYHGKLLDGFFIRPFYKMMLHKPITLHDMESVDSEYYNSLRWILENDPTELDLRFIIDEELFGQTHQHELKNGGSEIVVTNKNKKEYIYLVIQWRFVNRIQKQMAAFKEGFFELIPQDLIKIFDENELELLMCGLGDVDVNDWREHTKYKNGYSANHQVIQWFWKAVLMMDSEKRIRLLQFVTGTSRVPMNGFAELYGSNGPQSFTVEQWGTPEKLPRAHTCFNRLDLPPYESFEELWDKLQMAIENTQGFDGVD
The experiment can be described thus: Cell-based selectivity studies with alkyne probe 15, click reaction, in-gel fluorescence. The settings on record: pretreatment 1 h, then 2 μM probe 15.
Method: We treated TC71 Ewing's sarcoma cells (NEDD4-1 positive),^[6b] with 2 μM of compound 15, followed by lysis, click reaction with rhodamine azide, and in-gel fluorescence.^[15]
TC71 cells were cultured in Iscove's Modified Dulbecco's Medium (IMDM), 20% (v/v) FBS, 4 mM glutamine, and lx ITS (5 μg/mL insulin, 5 μg/mL transferrin, 5 ng/mL selenous acid). Cells were grown to confluence in 6-well plates (9.6 cm^2 per well). The growth medium was aspirated off and replaced with 2 mL serum-free IMDM containing 0.1% DMSO or the indicated concentration of inhibitor in 0.1% DMSO. After 1 h incubation time at 37° C., cells were treated with 0.1% DMSO or 2 μM of probe 15 in 0.1% DMSO for an additional hour. […] Proteins were then resolved by SDS-PAGE 7.5% or 15% acrylamide gels, and subjected to in-gel scanning fluorescence imaging on the Typhoon 9400 at 610 nm excitation. The gel was then stained with Coomassie Brilliant Blue to visualize all proteins. Western blots were performed with anti-NEDD4-1 antibody from Cell Signaling (2740S).

Experiment [3] has as its target T3, NEDD4-1 HECT domain (Homo sapiens, UniProt P46934).
T3 construct: to elute NEDD4-1 HECT domain (50 mM HEPES, 150 mM NaCl, 0.1 mM EDTA 1 mM DTT); GST (N, cleaved yes); made in house; host or cells: E. coli BL21
T3 sequence (P46934 with tags, fused parts or gaps): T1 sequence (P46934 with tags, fused parts or gaps)
The experiment can be described thus: Covalent labeling of NEDD4-1 HECT domain (gel filtration, whole protein ESI-MS). The experiment is classed as binding. The protocol: 10 μM of NEDD4-1 HECT domain in 50 mM HEPES 150 mM NaCl 0.1 mM EDTA 1 mM DTT pH 7.5 was treated with a mixture of ten fragments (from 10 mM each DMSO stock solution mixtures; final concentrations: 100 μM of each fragment, and 1% DMSO). Fragment structures and mixture compositions were the same as reported previously. The reaction mixture was incubated for 4 h at 23° C. before being passed through Zeba gel filtration columns (Thermo, 7K MWCO) to remove unreacted fragments. The protein solution was then immediately analyzed by whole protein LC/ESI-MS.
Accurate-mass data were obtained on an Agilent 6210A LC-TOF mass spectrometer in positive ion mode using electrospray ionization. Samples were chromatographed on the LC-TOF instrument using a Poroshell 120 EC-C18 HPLC column (2.1*50 mm, 2.7 micron), an Agilent Series 1200 HPLC binary pump, and an Agilent Series 1200 autoinjector. The HPLC column was held at 45° C. and the autosampler was held at 8° C. Mobile Phase A was a solution of 0.1% formic acid in water:acetonitrile (19:1). Mobile Phase B was a solution of 0.1% formic acid in acetonitrile. The flow rate was set to 250 μL/min. The gradient used was 0% B for 2 minutes, ramping linearly to 90% B from 2 minutes to 5 minutes, holding at 90% B from 5 minutes to 7 minutes, and then returning to 0% B at 7.1 minutes. The column was allowed to equilibrate for 2.7 minutes before the next injection was initiated. The eluent from the column was diverted to waste for the first 2 minutes. The spectra were acquired from 301 to 3200 daltons using a gas temperature of 340° C., a gas flow of 7 liters/min, and the nebulizer gas at 35 psi. The following voltages were used: capillary 4200 V, fragmentor 230V, skimmer 64V, and octapole RF peak 250V. Spectra were acquired at a rate of 1 spectra/sec. The data was processed using MassHunter software version B.02.00. Maximum entropy deconvolutions were performed with a Mass Step of 1, S/N Threshold of 30, Average Mass at 90% of Peak Height, and 5 Charge States Minimum.
10 μM of NEDD4-1 HECT domain in 50 mM HEPES 150 mM NaCl 0.1 mM EDTA 1 mM DTT pH 7.5 was treated with 1 mM of inhibitor 1 or 2 (from 100 mM DMSO stock solution; final concentrations: 1 mM of inhibitor, 1% DMSO, and 0.2% CHAPS to solubilize the inhibitors at 1 mM). The reaction mixture was incubated for 4 h at 23° C. before being passed through Zeba gel filtration columns (Thermo, 7K MWCO) to remove unreacted inhibitor. The protein solution was then immediately used for crystallization or enzymatic assay.

The target of experiment [4] is T3, NEDD4-1 HECT domain. The experiment can be described thus: In vitro ubiquitination assays. To be noted: NEDD4-1 HECT pretreated with 1 mM compound for 3 h, quenched after 5 min. The experiment is classed as biochemical. The protocol:
FIG. 15A, FIG. 15B and FIG. 15C. (FIG. 15A) Enzymatic assay with compounds 1, 2, and 4. NEDD4-1 HECT domain was pretreated with 1% DMSO (lane 1), or 1 mM of compounds 1 (lane 2), 2 (lane 3), or 4 (lane 4) for 3 h before beginning the assay. The reaction mixtures were quenched after 5 min, and polyubiquitin chains were detected by Western blot with anti-ubiquitin antibody. (FIG. 15B) Cartoon depiction of the crystal structure of NEDD4-1:1 with key side chains and the inhibitor shown as spheres. (FIG. 15C) Close-up view of the inhibitor-binding site with the key side chains depicted as sticks and colored by atom type. The 2FO-FC electron density map (mesh, contoured at 1.0 σ) is presented for Cys^627 and 1.
FIG. 16A, FIG. 16B, FIG. 16C and FIG. 16D. (FIG. 16A) and (FIG. 16B) Compound 6 disrupts the NEDD4-1:Ub interaction as shown by a fluorescence polarization assay. Mean±s.e.m., n=3. (FIG. 16C) Compound 6 inhibits the ability of NEDD4-1 to polyubiquitinate the Wbp2-C-K222 protein substrate. NEDD4-1 was pretreated with 1% DMSO (lane 1), or 100 μM of compound 6 (lane 2) or compound 4 (lane 3) for 1.5 h before beginning the assay. Reaction mixtures were quenched at the indicated times and the amount of ubiquitinated Wbp2-C-K222 was determined using in-gel fluorescence. (FIG. 16D) Quantification of polyubiquitin chains in FIG. 16B. Mean±s.e.m., n=2. […]

“Also recorded” adds a separate entry of the source.

As for `COC(=O)/C=C/CNC(=O)c1c(C)n(C2CCCC2)c2ccc(OC)cc12` [Compound 6], the kinact in experiment [1] was 5.8e-05 s⁻¹. The KI (inactivation constant) in experiment [1] (read-out: K1 (disruption of NEDD4-1:Ub binding)) came out at 29.3 µM.

With `COC(=O)/C=C/CNC(=O)c1c(C)n(C)c2ccccc12` [Compound 11, Methyl(E)-4-(1,2-dimethyl-1H-indole-3-carboxamido)but-2-enoate], the “effect of pretreatment on probe 15 labeling of the ~120 kDa band (NEDD4-1)” value in experiment [2] was “inactive”.

With `COC(=O)/C=C/CNC(=O)c1c(C)n(C)c2ccc(OC)cc12` [Compound 1, Methyl(E)-4-(5-methoxy-1,2-dimethyl-1H-indole-3-carboxamido)but-2-enoate], on NEDD4-1 HECT domain [3] (compound 100 μM, NEDD4-1 10 μM, 4 h), the “labeling of NEDD4-1” value was about 40%. On NEDD4-1 HECT domain [3] (compound 100 μM, NEDD4-1 HECT 10 μM, 4 h), the “labeling of NEDD4-1 HECT domain (qualitative)” value is on record as “monolabel”. For the same compound, the “labeling of NEDD4-1 in the presence of ubiquitin” value at NEDD4-1 HECT domain [3] (compound 100 μM, NEDD4-1 HECT 10 μM, ubiquitin 60 μM, 4 h) was “completely inhibited”. Moreover, the “modification of NEDD4-1 HECT domain at 1 mM” value on NEDD4-1 HECT domain [3] (compound 1 mM, 3-4 h) is on record as “complete modification; also recorded: fully labels NEDD4-1 HECT domain after 3 h, with minor non-specific dilabeling”. Moreover, the “covalent modification of NEDD4-1 HECT domain in the mixture screen” value on NEDD4-1 HECT domain [3] (ten mixtures of ten fragments, 100 μM each, 4 h) is listed as “weak covalent modifiers”. The “polyubiquitin chain assembly by NEDD4-1 (anti-ubiquitin Western blot)” value on NEDD4-1 HECT domain [4] is on record as “defective at assembling polyubiquitin chains; also recorded: inhibition of polyubiquitization”.
